Test results taken from patent US10774102B2, “Galactoside inhibitor of galectins” (Galecto Biotech AB, priority 2015, dated 2020).

target: galectin-3 (Homo sapiens (Human), UniProt P17931); test: Fluorescence anisotropy assay of galectin-3 affinity (compound inhibits galectin binding to a fluorescein tagged saccharide probe); conditions: high affinity probe, 50 nM galectin-3, 100 nM albumin
Experimental: 100 nM albumin was included as a carrier to prevent protein loss at such low concentration of galectin.

Chain of galectin-3 (P17931 whole entry): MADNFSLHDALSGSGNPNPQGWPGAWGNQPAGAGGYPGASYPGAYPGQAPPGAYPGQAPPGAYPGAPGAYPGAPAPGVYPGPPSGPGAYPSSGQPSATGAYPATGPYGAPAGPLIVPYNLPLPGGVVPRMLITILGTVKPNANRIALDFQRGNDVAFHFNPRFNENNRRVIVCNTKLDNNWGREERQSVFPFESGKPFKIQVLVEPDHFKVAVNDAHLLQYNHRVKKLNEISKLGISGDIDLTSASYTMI

Structure (SMILES) | Kd [nM]
OC[C@H]1O[C@H](Oc2ccc(Cl)c(Cl)c2)[C@H](O)[C@@H](n2cc(-c3cc(F)c(F)c(F)c3)nn2)[C@H]1O [Example 22, 3,4-Dichlorophenyl 3-deoxy-3-[4-(3,4,5-trifluorophenyl)-1H-1,2,3-triazol-1-yl]-α-D-galactopyranoside] | 490
OC[C@H]1O[C@H](Sc2ccc(Cl)cc2)[C@H](O)[C@@H](n2cc(-c3cc(F)c(F)c(F)c3)nn2)[C@H]1O [Example 23, 4-Chlorophenyl 3-deoxy-3-[4-(3,4,5-trifluorophenyl)-1H-1,2,3-triazol-1-yl]-1-thio-α-D-galactopyranoside] | 200
[O-][S+](c1ccc(Cl)c(Cl)c1)[C@H]1O[C@H](CO)[C@H](O)[C@H](n2cc(-c3cc(F)c(F)c(F)c3)nn2)[C@H]1O (stereo partly drawn) [Example 24, 3,4-Dichlorophenyl 3-deoxy-3-[4-(3,4,5-trifluorophenyl)-1H-1,2,3-triazol-1-yl]-α-D-galactopyranosyl sulfoxide] | 10
O=S(=O)(c1ccc(Cl)c(Cl)c1)[C@H]1O[C@H](CO)[C@H](O)[C@H](n2cc(-c3cc(F)c(F)c(F)c3)nn2)[C@H]1O [Example 25, 3,4-Dichlorophenyl 3-deoxy-3-[4-(3,4,5-trifluorophenyl)-1H-1,2,3-triazol-1-yl]-α-D-galactopyranosyl sulfone] | 62
[O-][S+](c1ccc(Cl)cc1)[C@H]1O[C@H](CO)[C@H](O)[C@H](n2cc(-c3cc(F)c(F)c(F)c3)nn2)[C@H]1O (stereo partly drawn) [Example 26, 4-Chlorophenyl 3-deoxy-3-[4-(3,4,5-trifluorophenyl)-1H-1,2,3-triazol-1-yl]-α-D-galactopyranosyl sulfoxide] | 770
OC[C@H]1O[C@H](Sc2ccccc2)[C@H](O)[C@@H](n2cc(-c3cc(F)c(F)c(F)c3)nn2)[C@H]1O [Example 27, Phenyl 3-deoxy-3-[4-(3,4,5-trifluorophenyl)-1H-1,2,3-triazol-1-yl]-1-thio-α-D-galactopyranoside] | 400
OC[C@H]1O[C@H](Sc2ccc(F)c(Cl)c2)[C@H](O)[C@@H](n2cc(-c3cc(F)c(F)c(F)c3)nn2)[C@H]1O [Example 28, 3-Chloro-4-fluorophenyl 3-deoxy-3-[4-(3,4,5-trifluorophenyl)-1H-1,2,3-triazol-1-yl]-1-thio-α-D-galactopyranoside] | 48
OC[C@H]1O[C@H](Sc2ccc(F)cc2)[C@H](O)[C@@H](n2cc(-c3cc(F)c(F)c(F)c3)nn2)[C@H]1O [Example 30, 4-Fluorophenyl 3-deoxy-3-[4-(3,4,5-trifluorophenyl)-1H-1,2,3-triazol-1-yl]-1-thio-α-D-galactopyranoside] | 270
OC[C@H]1O[C@H](Sc2ccc(OC(F)(F)F)cc2)[C@H](O)[C@@H](n2cc(-c3cc(F)c(F)c(F)c3)nn2)[C@H]1O [Example 31, 4-Trifluoromethoxyphenyl 3-deoxy-3-[4-(3,4,5-trifluorophenyl)-1H-1,2,3-triazol-1-yl]-1-thio-α-D-galactopyranoside] | 280
OC[C@H]1O[C@H](Oc2ccccc2)[C@H](O)[C@@H](n2cc(-c3cc(F)c(F)c(F)c3)nn2)[C@H]1O [Example 32, Phenyl 3-deoxy-3-[4-(3,4,5-trifluorophenyl)-1H-1,2,3-triazol-1-yl]-α-D-galactopyranoside] | 1000
OC[C@H]1O[C@H](Oc2cccc(Cl)c2)[C@H](O)[C@@H](n2cc(-c3cc(F)c(F)c(F)c3)nn2)[C@H]1O [Example 33, 3-Chlorophenyl 3-deoxy-3-[4-(3,4,5-trifluorophenyl)-1H-1,2,3-triazol-1-yl]-α-D-galactopyranoside] | 250
OC[C@H]1O[C@H](Oc2ccc(Cl)cc2)[C@H](O)[C@@H](n2cc(-c3cc(F)c(F)c(F)c3)nn2)[C@H]1O [Example 34, 4-Chlorophenyl 3-deoxy-3-[4-(3,4,5-trifluorophenyl)-1H-1,2,3-triazol-1-yl]-α-D-galactopyranoside] | 570
OC[C@H]1O[C@H](SC2CCCCC2)[C@H](O)[C@@H](n2cc(-c3cc(F)c(F)c(F)c3)nn2)[C@H]1O [Example 35, Cyclohexyl 3-deoxy-3-[4-(3,4,5-trifluorophenyl)-1H-1,2,3-triazol-1-yl]-1-thio-α-D-galactopyranoside] | 440
OC[C@H]1O[C@H](Sc2cc(Cl)c(Cl)cc2Cl)[C@H](O)[C@@H](n2cc(-c3cc(F)c(F)c(F)c3)nn2)[C@H]1O [Example 36, 2,4,5-Trichlorophenyl 3-deoxy-3-[4-(3,4,5-trifluorophenyl)-1H-1,2,3-triazol-1-yl]-1-thio-α-D-galactopyranoside] | 60
OC[C@H]1O[C@H](Sc2cc(Cl)ccc2Cl)[C@H](O)[C@@H](n2cc(-c3cc(F)c(F)c(F)c3)nn2)[C@H]1O [Example 37, 2,5-Dichlorophenyl 3-deoxy-3-[4-(3,4,5-trifluorophenyl)-1H-1,2,3-triazol-1-yl]-1-thio-α-D-galactopyranoside] | 84
OC[C@H]1O[C@H](Sc2cccc(O)c2)[C@H](O)[C@@H](n2cc(-c3cc(F)c(F)c(F)c3)nn2)[C@H]1O [Example 38, 3-Hydroxy-phenyl 3-deoxy-3-[4-(3,4,5-trifluorophenyl)-1H-1,2,3-triazol-1-yl]-1-thio-α-D-galactopyranoside] | 490
[O-][S+](c1cccc(Br)c1)[C@H]1O[C@H](CO)[C@H](O)[C@H](n2cc(-c3cc(F)c(F)c(F)c3)nn2)[C@H]1O (stereo partly drawn) [Example 39, 3-Bromophenyl 3-deoxy-3-[4-(3,4,5-trifluorophenyl)-1H-1,2,3-triazol-1-yl]-α-D-galactopyranosyl sulfoxide] | 23
OCC1O[C@H](SCCc2ccccc2)C(O)[C@@H](n2cc(-c3cc(F)c(F)c(F)c3)nn2)[C@H]1O (stereo partly drawn) [Example 40, 2-Phenethyl 3-deoxy-3-[4-(3,4,5-trifluorophenyl)-1H-1,2,3-triazol-1-yl]-1-thio-α-D-galactopyranoside] | 480
[O-][S+](c1ccc(Cl)c(Cl)c1)[C@H]1O[C@H](CO)[C@H](O)[C@H](n2cc(-c3c(F)c(F)c(F)c(F)c3F)nn2)[C@H]1O (stereo partly drawn) [Example 42, 3,4-Dichlorophenyl 3-deoxy-3-[4-(2,3,4,5,6-pentafluorophenyl)-1H-1,2,3-triazol-1-yl]-α-D-galactopyranosyl sulfoxide] | 2
O=S(=O)(c1ccc(Cl)c(Cl)c1)[C@H]1O[C@H](CO)[C@H](O)[C@H](n2cc(-c3c(F)c(F)c(F)c(F)c3F)nn2)[C@H]1O [Example 53, 3,4-Dichlorophenyl 3-deoxy-3-[4-(2,3,4,5,6-pentafluorophenyl)-1H-1,2,3-triazol-1-yl]-α-D-galactopyranosyl sulfone] | 13
OC[C@H]1O[C@H](Sc2ccc(F)c(Br)c2)[C@H](O)[C@@H](n2cc(-c3cc(F)c(F)c(F)c3)nn2)[C@H]1O [Example 60, 3-Bromo-4-fluorophenyl 3-deoxy-3-[4-(3,4,5-trifluorophenyl)-1H-1,2,3-triazol-1-yl]-1-thio-α-D-galactopyranoside] | 24
COc1ccc(Cl)cc1S[C@H]1OC(CO)[C@H](O)[C@H](n2cc(-c3cc(F)c(F)c(F)c3)nn2)C1O (stereo partly drawn) [Example 65, 5-Chloro-2-methoxyphenyl 3-deoxy-1-thio-3-[4-(3,4,5-trifluorophenyl)-1H-1,2,3-triazol-1-yl]-α-D-galactopyranoside] | 84
